We go through two compounds from article PMC9760430, “A stapled chromogranin A-derived peptide homes in on tumors that express αvβ6 or αvβ8 integrins” (International Journal of Biological Sciences, 2023).

The pEC50 is the negative decadic logarithm of the EC50, by convention in mol/L.

This experiment concerns the target T1, murine αvβ8 (Mus musculus, UniProt P43406+Q0VBD0).
T1 construct: purchased Bio-Techne
T1 sequence (P43406 31-988 limits assumed): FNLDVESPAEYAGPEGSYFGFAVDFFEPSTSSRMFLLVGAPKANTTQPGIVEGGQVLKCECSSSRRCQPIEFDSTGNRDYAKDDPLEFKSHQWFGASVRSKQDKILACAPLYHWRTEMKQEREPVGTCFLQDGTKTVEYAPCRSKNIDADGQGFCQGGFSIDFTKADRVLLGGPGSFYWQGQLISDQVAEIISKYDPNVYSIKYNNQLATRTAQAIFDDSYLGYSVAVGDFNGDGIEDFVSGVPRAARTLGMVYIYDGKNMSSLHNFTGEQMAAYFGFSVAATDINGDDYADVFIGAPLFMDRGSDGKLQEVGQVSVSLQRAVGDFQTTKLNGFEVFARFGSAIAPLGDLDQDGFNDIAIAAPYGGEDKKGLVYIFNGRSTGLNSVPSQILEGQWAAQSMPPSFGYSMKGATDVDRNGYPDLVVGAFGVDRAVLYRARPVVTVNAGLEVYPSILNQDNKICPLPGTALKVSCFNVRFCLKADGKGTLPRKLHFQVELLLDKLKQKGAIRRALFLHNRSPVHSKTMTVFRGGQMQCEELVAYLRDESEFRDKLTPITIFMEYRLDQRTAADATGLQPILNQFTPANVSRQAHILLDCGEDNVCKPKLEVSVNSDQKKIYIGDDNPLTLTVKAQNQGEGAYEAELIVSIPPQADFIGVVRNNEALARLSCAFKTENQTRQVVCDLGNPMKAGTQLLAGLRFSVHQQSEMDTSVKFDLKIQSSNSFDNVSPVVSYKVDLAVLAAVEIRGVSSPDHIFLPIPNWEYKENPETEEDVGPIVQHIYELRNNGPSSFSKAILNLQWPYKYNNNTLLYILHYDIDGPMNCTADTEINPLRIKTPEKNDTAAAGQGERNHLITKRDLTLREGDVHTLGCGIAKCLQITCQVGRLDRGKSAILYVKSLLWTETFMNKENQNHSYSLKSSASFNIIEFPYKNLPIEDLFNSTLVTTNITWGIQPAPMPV
T1 sequence (Q0VBD0 43-682 limits assumed): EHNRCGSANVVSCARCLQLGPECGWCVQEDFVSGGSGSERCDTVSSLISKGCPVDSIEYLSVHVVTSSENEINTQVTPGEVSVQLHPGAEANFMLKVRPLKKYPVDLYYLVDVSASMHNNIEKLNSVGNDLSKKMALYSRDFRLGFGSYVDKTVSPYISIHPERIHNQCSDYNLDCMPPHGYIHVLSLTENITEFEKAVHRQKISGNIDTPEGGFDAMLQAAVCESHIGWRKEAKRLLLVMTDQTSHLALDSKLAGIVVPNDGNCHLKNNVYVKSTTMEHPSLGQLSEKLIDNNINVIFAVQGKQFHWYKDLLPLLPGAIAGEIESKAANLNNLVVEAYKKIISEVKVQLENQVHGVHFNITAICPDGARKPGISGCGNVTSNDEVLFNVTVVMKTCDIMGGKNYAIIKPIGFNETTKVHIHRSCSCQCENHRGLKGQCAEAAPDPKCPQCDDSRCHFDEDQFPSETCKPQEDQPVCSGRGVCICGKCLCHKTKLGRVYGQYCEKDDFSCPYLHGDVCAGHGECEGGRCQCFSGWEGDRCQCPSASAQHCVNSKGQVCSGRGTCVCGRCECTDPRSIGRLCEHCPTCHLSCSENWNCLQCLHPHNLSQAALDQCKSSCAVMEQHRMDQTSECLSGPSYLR
In words: direct integrin binding assay of peptide-IRDye conjugates, murine αvβ8-coated plates. As to conditions: plates coated with recombinant murine αvβ8; conjugate 0.01-100 nM, 1 h; bound NIR fluorescence; mean ± SE, n = 3 experiments. Here is the method:
The affinity of peptide-IRDye conjugates for αvβ6 and αvβ8 integrins was determined by a direct binding assay using microtiter plates coated with αvβ6 or αvβ8 (Bio-Techne). After 1 h of incubation, the plates were washed; bound fluorescence was quantified by scanning the plates with an Odyssey CLx near-infrared fluorescence imaging system (LI-COR).
A control conjugate with a cysteine in place of the peptide was also prepared in parallel. […]
The simplified molecular-input line-entry system (SMILES) of 5a-, 2a-, Cys- and 5a-Scr- […]
The concentration of each conjugate was quantified by spectrophotometric analysis at 774 nm (molar absorption coefficient, 240,000 M-1, cm-1) (Figure S3B). The final yield of 5a-IRDye […]
Binding of peptide-IRDye conjugates to avb6 and avb8 integrin […]
conjugates were added to the microtiterplates and incubated at room temperature for 1 h (see Experimental Section). After washing, bound fluorescence was measured using an Odyssey CLx (LI-COR) scanner. Representative images of the scanned plates and quantification of binding are shown. […]

pEC50: −log10 of the molar value. Peptide text beside a SMILES is read from it. * marks the point of attachment. X1 = CC1(C)C(/C=C/C2=C(Oc3ccc(S(=O)(=O)O)cc3)C(=C\C=C3/N(CCCCCC(=O)NCCN4C(=O)CC(*)C4=O)c4ccc(S(=O)(=O)O)cc4C3(C)C)/CCC2)=[N+](CCCCS(=O)(=O)O)c2ccc(S(=O)(=O)[O-])cc21 Bounds are passed on as bounds.

For `CC[C@H](C)[C@H](NC(=O)[C@H](CCCNC(=N)N)NC(=O)[C@H](CCC(=O)O)NC(=O)[C@H](CCC(=O)O)NC(=O)CNC(=O)[C@H](CCCNC(=N)N)NC(=O)[C@H](CC(C)C)NC(=O)[C@@H](NC(=O)[C@H](CCC(=O)O)NC(=O)[C@H](Cc1ccccc1)NC(=O)[C@@H](N)CSC1CC(=O)N(CCNC(=O)CCCCCN2/C(=C\C=C3\CCCC(/C=C/C4=[N+](CCCCS(=O)(=O)O)c5ccc(S(=O)(=O)[O-])cc5C4(C)C)=C3Oc3ccc(S(=O)(=O)O)cc3)C(C)(C)c3cc(S(=O)(=O)O)ccc32)C1=O)[C@@H](C)O)C(=O)N[C@@H](CC(C)C)C(=O)N[C@@H](CO)C(=O)N[C@H](C(=O)N[C@@H](CC(C)C)C(=O)N[C@@H](CCCNC(=N)N)C(=O)N[C@@H](Cc1c[nH]cn1)C(=O)N[C@@H](CCC(N)=O)C(=O)N[C@@H](CC(N)=O)C(=O)N[C@@H](CC(C)C)C(=O)N[C@@H](CC(C)C)C(=O)N[C@@H](CCCCN)C(=O)N[C@@H](CCC(=O)O)C(=O)N[C@@H](CC(C)C)C(=O)N[C@@H](CCC(N)=O)C(=O)N[C@@H](CC(=O)O)C(N)=O)[C@@H](C)CC` (some centres unmarked) [2a-IRDye] (H-C(X1)FETLRGEERILSILRHQNLLKELQD-NH2), the pEC50 is under 7.00. With `CC1(C)C(/C=C/C2=C(Oc3ccc(S(=O)(=O)O)cc3)C(=C\C=C3/N(CCCCCC(=O)NCCN4C(=O)CC(SC[C@H](N)C(=O)O)C4=O)c4ccc(S(=O)(=O)O)cc4C3(C)C)/CCC2)=[N+](CCCCS(=O)(=O)O)c2ccc(S(=O)(=O)[O-])cc21` (some centres unmarked) [Cys-IRDye], the pEC50 was under 7.00.
